Results from patent US7098211B2, “Compounds having simultaneous ability to block L-type calcium channels and to inhibit phosphodiesterase type 3 activity” (Artesian Therapeutics, Inc., priority 2002, dated 2006).
Several values for one entry are separate records, joined by “and”; a condition that tells them apart may be missing. Equal values may be shown once. One block for each molecule: values may come before it.

Experiments:
[1] = target: T1, Human platelet cyclic AMP phosphodiesterase (PDE-3) (Homo sapiens, UniProt Q14432); test: cAMP PDE-3 inhibitory activity assay; type: biochemical; conditions: 10 minutes at 30° C., n=3 per concentration
T1 construct: Human platelet cyclic AMP phosphodiesterase was prepared; from tissue; host or cells: human platelets
T1 sequence (Q14432 whole entry): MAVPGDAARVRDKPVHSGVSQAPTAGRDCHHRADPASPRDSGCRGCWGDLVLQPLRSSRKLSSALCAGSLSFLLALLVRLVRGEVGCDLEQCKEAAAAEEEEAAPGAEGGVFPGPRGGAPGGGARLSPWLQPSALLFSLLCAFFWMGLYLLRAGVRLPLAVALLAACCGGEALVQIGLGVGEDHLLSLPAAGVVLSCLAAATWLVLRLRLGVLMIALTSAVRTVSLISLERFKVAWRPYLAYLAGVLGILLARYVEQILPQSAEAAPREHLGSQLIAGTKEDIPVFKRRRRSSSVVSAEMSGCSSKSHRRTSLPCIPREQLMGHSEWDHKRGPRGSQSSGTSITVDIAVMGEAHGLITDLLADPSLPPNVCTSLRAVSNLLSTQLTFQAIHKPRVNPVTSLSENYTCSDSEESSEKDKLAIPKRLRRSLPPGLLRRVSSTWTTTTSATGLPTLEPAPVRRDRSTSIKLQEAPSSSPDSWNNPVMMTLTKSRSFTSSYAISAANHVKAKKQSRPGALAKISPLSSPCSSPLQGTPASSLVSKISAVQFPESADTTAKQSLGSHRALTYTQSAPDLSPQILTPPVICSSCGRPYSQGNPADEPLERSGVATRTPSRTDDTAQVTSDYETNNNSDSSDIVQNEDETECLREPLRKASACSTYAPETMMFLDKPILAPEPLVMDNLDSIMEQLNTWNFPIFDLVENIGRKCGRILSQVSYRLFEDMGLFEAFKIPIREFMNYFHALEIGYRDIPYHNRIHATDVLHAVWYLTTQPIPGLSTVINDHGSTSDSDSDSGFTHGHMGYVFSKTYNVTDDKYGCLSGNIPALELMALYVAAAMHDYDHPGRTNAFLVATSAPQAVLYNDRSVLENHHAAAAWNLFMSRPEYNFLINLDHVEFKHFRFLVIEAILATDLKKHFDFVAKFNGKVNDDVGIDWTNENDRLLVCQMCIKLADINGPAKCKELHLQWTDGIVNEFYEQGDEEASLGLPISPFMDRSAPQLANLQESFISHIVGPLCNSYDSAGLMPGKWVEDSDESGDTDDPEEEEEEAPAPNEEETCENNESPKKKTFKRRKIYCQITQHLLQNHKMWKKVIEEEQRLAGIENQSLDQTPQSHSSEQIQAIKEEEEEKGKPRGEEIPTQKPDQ
Method: Human platelet cyclic AMP phosphodiesterase was prepared according to the method of Alvarez et al. (Mol. Pharmacol. 1986, 29, 554). The PDE incubation medium contained 10 mM Tris-HCl buffer, pH 7.7, 10 mM MgSO4, and 1 μM […] (0.2 μCi) in a total volume of 1.0 mL. Test compounds were dissolved in dimethyl sulfoxide (DMSO) immediately prior to addition to the incubation medium, and the resulting mixture was allowed to stand for 10 minutes prior to the addition of enzyme. Following the addition of PDE, the contents were mixed and incubated for 10 minutes at 30° C. Three assays each were performed for each of five test compound concentrations, the mean of the determinations (n=3) at each concentration was plotted, and IC50 values were determined graphically.

[2] = system: paced dog model of congestive heart failure; test: Paced dog model of congestive heart failure; type: in vivo; conditions: for ventricular tachycardia: all tested dosages
Method: Compound 8 was evaluated in a paced dog model of congestive heart failure. Pacing-induced heart failure in the dog produces alterations in heart physiology and molecular signaling similar to what is seen in the failing human heart, making this an appropriate model to test compounds that can potentially improve calcium homeostasis and heart failure physiology. Heart failure was induced by increasing the heart rate to 220–240 beats per minute (bpm) for a six week period. The degree of heart failure was documented by both pressure measurements and echocardiogram (changes in contractility, ejection fraction, ventricular relaxation, fractional area shortening, isovolumic relaxation time). Compound 8 or the milrinone were administered following the induction of heart failure.

[3] = system: guinea pig papillary muscle; test: Contraction-relaxation in guinea pig papillary muscle; type: cell-based; conditions: FIG. 1
Method: Male guinea pigs (400–500 g) were killed by cervical dislocation and the hearts were quickly removed, immersed in ice-cold, and oxygenated in Kreb's solution containing 113.1 mM NaCl, 4.6 mM KCl, 2.45 mM CaCl2, 1.2 mM MgCl2, […], and 10.0 mM glucose; pH 7.4 with 95% O2–5% CO2. The ventricles were opened and papillary muscles were removed with chordae tandineae and a base of surrounding tissue intact. The tendinous ends of the muscles were ligated with silk thread, and the muscles were mounted in vertical, double-jacketed organ baths containing 10 mL of oxygenated Kreb's solution kept at 37° C. […]
Following a 45-minute equilibration period under a 1 gram tension, control contractions were elicited by stimulating the muscle using stainless steel field electrodes at a frequency of 1.0 Hz, 2.0 ms duration. […] Control contraction-relaxation cycles were recorded for 30 seconds continuously. […] A series of washout contractions was recorded following a change of solution. When the amplitude of contraction returned to that measured in control conditions, a single concentration of positive control was then tested on the tissue in the same manner as Compound 5 and milrinone.
Contraction amplitude as well as the time courses of contraction and relaxation were quantified. […]

Compound: COC(=O)C1=C(C)NC(COCCNC(=O)COc2ccc(C3=NNC(=O)CC3)cc2Cl)=C(C(=O)OC)C1c1ccccc1Cl (stereo not drawn) [Compound 8, methyl 6-[(2-{2-[2-chloro-4-(6-oxo(1,4,5-trihydropyridazin-3-yl))phenoxy]acetylamino}ethoxy)methyl]-4-(2-chlorophenyl)-5-(methoxycarbonyl)-2-methyl-1,4-dihydropyridine-3-carboxylate]
contractility (dp/dt max) and ejection fraction, maximal increase relative to that produced by milrinone ([2]; % of that produced by milrinone, FIG. 2): 53–61% | ventricular relaxation (dp/dt min, Tau and isovolumic relaxation time), maximal increase relative to that produced by milrinone ([2]; % of that produced by milrinone, FIG. 3): 63–88% | contractility (dp/dt max) and ejection fraction ([2]; dogs in heart failure, FIG. 2): dose-dependent response | ventricular relaxation (dp/dt min, Tau and isovolumic relaxation time) ([2]; dogs in heart failure, FIG. 3): increased ventricular relaxation in a dose-dependent manner | ventricular tachycardia ([2]; dogs in heart failure): no ventricular tachycardia | in vivo inhibition of PDE-3 and calcium channel antagonism ([2]; systemic administration, dogs in heart failure): demonstrated in vivo inhibition of PDE-3 and calcium channel antagonism | QT prolongation ([2]; under acute conditions): no apparent QT prolongation | IC50 [1]: 80 nM

Compound: CCOC(=O)C1=C(COCCNC(=O)CCCOc2ccc3[nH]c(=O)ccc3c2)NC(C)=C(C(=O)OC)C1c1ccccc1Cl (stereo not drawn) [Compound 5, methyl 4-(2-chlorophenyl)-5-(ethoxycarbonyl)-2-methyl-6-({2-[4-(2-oxo(6-hydroquinolyloxy))butanoylamino]ethoxy}methyl)-1,4-dihydropyridine-3-carboxylate]
inotropic effect (muscle contractility) ([3]; cumulative concentrations, stimulated at 1.0 Hz): positive inotropic effect (increase in muscle contractility) in a dose-dependent manner | maximum increase in contractility compared with milrinone ([3]; guinea pig papillary muscle): less than the maximum increase produced by milrinone | IC50 [1]: 300 nM

Compound: COC(=O)C1=C(C)NC(COCCCOc2ccc3[nH]c(=O)ccc3c2)=C(C(=O)OC)C1c1ccccc1Cl (stereo not drawn) [Compound 7, methyl 4-(2-chlorophenyl)-5-(methoxycarbonyl)-2-methyl-6-{[3-(2-oxo(6-hydroquinolyloxy))propoxy]methyl}-1,4-dihydropyridine-3-carboxylate]
IC50 [1]: 340 nM and 420 nM

Compound: COC(=O)C1=C(C)NC(COCCNC(=O)CCCOc2ccc3[nH]c(=O)ccc3c2)=C(C(=O)OC)C1c1ccccc1[N+](=O)[O-] (stereo not drawn) [Compound 6, methyl 5-(methoxycarbonyl)-2-methyl-4-(2-nitrophenyl)-6-({2-[4-(2-oxo(6-hydroquinolyloxy))butanoylamino]ethoxy}methyl)-1,4-dihydropyridine-3-carboxylate]
IC50 [1]: 270 nM and 110 nM

The next lines start with the values.

IC50 [1]: 48 nM
Compound: CCOC(=O)C1=C(COCCNC(=O)COc2ccc(C3=NNC(=O)CC3)cc2Cl)NC(C)=C(C(=O)OC)C1c1ccccc1Cl (stereo not drawn) [Compound 9, methyl 6-[(2-{2-[2-chloro-4-(6-oxo(1,4,5-trihydropyridazin-3-yl))phenoxy]acetylamino}ethoxy)methyl]-4-(2-chlorophenyl)-5-(ethoxycarbonyl)-2-methyl-1,4-dihydropyridine-3-carboxylate]

ventricular tachycardia ([2]; dogs in heart failure): demonstrated ventricular tachycardia
Compound: Cc1[nH]c(=O)c(C#N)cc1-c1ccncc1 [milrinone, reference compound]

IC50 [1]: 240 nM
Compound: COC(=O)C1=C(C)NC(COCCNC(=O)COc2ccc3[nH]c(=O)ccc3c2)=C(C(=O)OC)C1c1ccccc1Cl (stereo not drawn) [Compound 12, methyl 4-(2-chlorophenyl)-5-(methoxycarbonyl)-2-methyl-6-({2-[2-(2-oxo(6-hydroquinolyloxy))acetylamino]ethoxy}methyl)-1,4-dihydropyridine-3-carboxylate]

IC50 [1]: 270 nM
Compound: COC(=O)C1=C(C)NC(COCCNC(=O)CCCOc2ccc3[nH]c(=O)ccc3c2)=C(C(=O)OC)C1c1ccccc1Cl (stereo not drawn) [Compound 10, methyl 4-(2-chlorophenyl)-5-(methoxycarbonyl)-2-methyl-6-({2-[4-(2-oxo(6-hydroquinolyloxy))butanoylamino]ethoxy}methyl)-1,4-dihydropyridine-3-carboxylate]

IC50 [1]: 100 nM
Compound: CCOC(=O)C1=C(COCCNC(=O)COc2ccc3[nH]c(=O)ccc3c2)NC(C)=C(C(=O)OC)C1c1ccccc1Cl (stereo not drawn) [Compound 11, methyl 4-(2-chlorophenyl)-5-(ethoxycarbonyl)-2-methyl-6-({2-[2-(2-oxo(6-hydroquinolyloxy))acetylamino]ethoxy}methyl)-1,4-dihydropyridine-3-carboxylate]
